Experimental data from patent US9944602B2, “Piperidinone herbicides” (E. I. DU PONT DE NEMOURS AND COMPANY, priority 2014, dated 2018).

Assays:
Type in all cases: in vivo
[1] = system: galium (catchweed bedstraw, Galium aparine); assay: Test A postemergence galium; settings: 0 to 100 scale, 0 is no effect, 100 is complete control
In short: (§1)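 Injury was scored by eye on a 0 to 100 scale after about 10 days in the greenhouse, with 100 meaning complete control. Preemergence treatment was a directed spray onto soil over seeds; postemergence treatment went onto one- to two-leaf plants 2–10 cm tall.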

[2] = system: ducksalad (Heteranthera limosa); assay: Test B flooded paddy test ducksalad; settings: Table B, Flood, 500 g ai/ha, scale 0 to 100
In short: (§2)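 Water-applied paddy treatment: compound dosed into 3 cm flood on 2-leaf plants, read visually versus controls after 13 to 15 d.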

[3] = system: ryegrass, Italian (Italian ryegrass, Lolium multiflorum); assay: Test A postemergence ryegrass, Italian; settings: 0 to 100 scale, 0 is no effect, 100 is complete control
In short: as §1

[4] = system: barnyardgrass (Echinochloa crus-galli); assay: Test B flooded paddy test barnyardgrass; settings: Table B, Flood, 500 g ai/ha, scale 0 to 100
In short: as §2

[5] = system: rice (Oryza sativa); assay: Test B flooded paddy test rice; settings: Table B, Flood, 500 g ai/ha, scale 0 to 100
In short: as §2

[6] = system: ragweed (common ragweed, Ambrosia elatior); assay: Test A preemergence ragweed; settings: 0 to 100 scale, 0 no effect, 100 complete control
In short: as §1

[7] = system: corn (Zea mays); assay: Test A postemergence corn; settings: 0 to 100 scale, 0 is no effect, 100 is complete control
In short: as §1

[8] = system: barnyardgrass (Echinochloa crus-galli); assay: Test A postemergence barnyardgrass; settings: 0 to 100 scale, 0 is no effect, 100 is complete control
In short: as §1

[9] = system: kochia (Kochia scoparia); assay: Test A preemergence kochia; settings: 0 to 100 scale, 0 no effect, 100 complete control
In short: as §1

[10] = system: barnyardgrass (Echinochloa crus-galli); assay: Test C flooded paddy test barnyardgrass; settings: Table C, Flood, scale 0 to 100
Excerpt: (§3) Plant species in the flooded paddy test consisted of rice (Oryza sativa), sedge, umbrella (small-flower umbrella sedge, Cyperus difformis), ducksalad (Heteranthera limosa), and barnyardgrass (Echinochloa crus-galli) grown to the 2-leaf stage for testing. At time of treatment, test pots were flooded to 3 cm above the soil surface, treated by application of test compounds directly to the paddy water, and then maintained at that water depth for the duration of the test. Treated plants and controls were maintained in a greenhouse for 13 to 15 d, after which time all species were compared to controls and visually evaluated. Plant response ratings, summarized in Table C, are based on a scale of 0 to 100 where 0 is no effect and 100 is complete control. A dash (-) response means no test result.

[11] = system: sedge, umbrella (small-flower umbrella sedge, Cyperus difformis); assay: Test B flooded paddy test sedge, umbrella; settings: Table B, Flood, 500 g ai/ha, scale 0 to 100
In short: as §2

[12] = system: barnyardgrass (Echinochloa crus-galli); assay: Test A preemergence barnyardgrass; settings: 0 to 100 scale; for Barnyardgrass plant response rating: 0 no effect, 100 complete control
In short: as §1

[13] = system: wheat (Triticum aestivum); assay: Test A postemergence wheat; settings: 0 to 100 scale, 0 is no effect, 100 is complete control
In short: as §1

[14] = system: foxtail, giant (giant foxtail, Setaria faberii); assay: Test A preemergence foxtail, giant; settings: 0 to 100 scale, 0 no effect, 100 complete control
In short: as §1

[15] = system: blackgrass (Alopecurus myosuroides); assay: Test A postemergence blackgrass; settings: 0 to 100 scale, 0 is no effect, 100 is complete control
In short: as §1

[16] = system: sedge, umbrella (small-flower umbrella sedge, Cyperus difformis); assay: Test C flooded paddy test sedge, umbrella; settings: Table C, Flood, scale 0 to 100
Excerpt: as §3

[17] = system: ducksalad (Heteranthera limosa); assay: Test C flooded paddy test ducksalad; settings: Table C, Flood, scale 0 to 100
Excerpt: as §3

[18] = system: foxtail, giant (giant foxtail, Setaria faberii); assay: Test A postemergence foxtail, giant; settings: 0 to 100 scale, 0 is no effect, 100 is complete control
In short: as §1

[19] = system: ryegrass, Italian (Italian ryegrass, Lolium multiflorum); assay: Test A preemergence ryegrass, Italian; settings: 0 to 100 scale, 0 no effect, 100 complete control
In short: as §1

[20] = system: pigweed (Amaranthus retroflexus); assay: Test A preemergence pigweed; settings: 0 to 100 scale, 0 no effect, 100 complete control
In short: as §1

[21] = system: kochia (Kochia scoparia); assay: Test A postemergence kochia; settings: 0 to 100 scale, 0 is no effect, 100 is complete control
In short: as §1

[22] = system: ragweed (common ragweed, Ambrosia elatior); assay: Test A postemergence ragweed; settings: 0 to 100 scale, 0 is no effect, 100 is complete control
In short: as §1

[23] = system: rice (Oryza sativa); assay: Test C flooded paddy test rice; settings: Table C, Flood, scale 0 to 100
Excerpt: as §3

[24] = system: pigweed (Amaranthus retroflexus); assay: Test A postemergence pigweed; settings: 0 to 100 scale, 0 is no effect, 100 is complete control
In short: as §1

SMILES: O=C1NCCC(c2cccc(C(F)(F)F)c2)C1C(=O)Nc1cccc(Cl)c1F (racemic) [Compound 16]
- Plant response rating, Galium ([1]; 125 g ai/ha): 20
- Plant response rating, Galium ([1]; 500 g ai/ha): 20
- Plant response rating [2]: 0
- Plant response rating, Ryegrass, Italian ([3]; 125 g ai/ha): 0
- Plant response rating, Ryegrass, Italian ([3]; 500 g ai/ha): 20
- Plant response rating [4]: 0
- Plant response rating [5]: 0
- Ragweed plant response rating ([6]; 125 g ai/ha): 0
- Ragweed plant response rating ([6]; 500 g ai/ha): 0
- Plant response rating, Corn ([7]; 125 g ai/ha): 0
- Plant response rating, Corn ([7]; 500 g ai/ha): 30
- Plant response rating, Barnyardgrass ([8]; 125 g ai/ha): 70
- Plant response rating, Barnyardgrass ([8]; 500 g ai/ha): 90
- Kochia plant response rating ([9]; 125 g ai/ha): 30
- Kochia plant response rating ([9]; 500 g ai/ha): 50
- Plant response rating ([10]; 31 g ai/ha): 0
- Plant response rating ([10]; 62 g ai/ha): 0
- Plant response rating ([10]; 125 g ai/ha): 0
- Plant response rating ([10]; 250 g ai/ha): 0
- Plant response rating [11]: 0
- Barnyardgrass plant response rating ([12]; 125 g ai/ha): 70
- Barnyardgrass plant response rating ([12]; 500 g ai/ha): 90
- Plant response rating, Wheat ([13]; 125 g ai/ha): 20
- Plant response rating, Wheat ([13]; 500 g ai/ha): 30
- Foxtail, Giant plant response rating ([14]; 125 g ai/ha): 90
- Foxtail, Giant plant response rating ([14]; 500 g ai/ha): 90
- Plant response rating, Blackgrass ([15]; 125 g ai/ha): 40
- Plant response rating, Blackgrass ([15]; 500 g ai/ha): 60
- Plant response rating ([16]; 31 g ai/ha): 0
- Plant response rating ([16]; 62 g ai/ha): 0
- Plant response rating ([16]; 125 g ai/ha): 0
- Plant response rating ([16]; 250 g ai/ha): 0
- Plant response rating ([17]; 31 g ai/ha): 0
- Plant response rating ([17]; 62 g ai/ha): 0
- Plant response rating ([17]; 125 g ai/ha): 0
- Plant response rating ([17]; 250 g ai/ha): 0
- Plant response rating, Foxtail, Giant ([18]; 125 g ai/ha): 80
- Plant response rating, Foxtail, Giant ([18]; 500 g ai/ha): 80
- Ryegrass, Italian plant response rating ([19]; 125 g ai/ha): 20
- Ryegrass, Italian plant response rating ([19]; 500 g ai/ha): 40
- Pigweed plant response rating ([20]; 125 g ai/ha): 0
- Pigweed plant response rating ([20]; 500 g ai/ha): 0
- Plant response rating, Kochia ([21]; 125 g ai/ha): 0
- Plant response rating, Kochia ([21]; 500 g ai/ha): 20
- Plant response rating, Ragweed ([22]; 125 g ai/ha): 0
- Plant response rating, Ragweed ([22]; 500 g ai/ha): 0
- Plant response rating ([23]; 31 g ai/ha): 0
- Plant response rating ([23]; 62 g ai/ha): 0
- Plant response rating ([23]; 125 g ai/ha): 0
- Plant response rating ([23]; 250 g ai/ha): 0
- Plant response rating, Pigweed ([24]; 125 g ai/ha): 0
- Plant response rating, Pigweed ([24]; 500 g ai/ha): 0

SMILES: O=C1NCCC(c2ccc(C(F)(F)F)cc2)C1C(=O)Nc1ccccc1C(F)(F)F (racemic) [Compound 12]
- Plant response rating, Galium ([1]; 125 g ai/ha): 0
- Plant response rating, Galium ([1]; 500 g ai/ha): 0
- Plant response rating, Ryegrass, Italian ([3]; 125 g ai/ha): 0
- Plant response rating, Ryegrass, Italian ([3]; 500 g ai/ha): 0
- Ragweed plant response rating ([6]; 125 g ai/ha): 0
- Ragweed plant response rating ([6]; 500 g ai/ha): 0
- Plant response rating, Corn ([7]; 125 g ai/ha): 0
- Plant response rating, Corn ([7]; 500 g ai/ha): 0
- Plant response rating, Barnyardgrass ([8]; 125 g ai/ha): 20
- Plant response rating, Barnyardgrass ([8]; 500 g ai/ha): 60
- Kochia plant response rating ([9]; 125 g ai/ha): 0
- Kochia plant response rating ([9]; 500 g ai/ha): 0
- Plant response rating ([10]; 125 g ai/ha): 0
- Plant response rating ([10]; 250 g ai/ha): 15
- Plant response rating ([10]; 500 g ai/ha): 20
- Plant response rating ([10]; 1000 g ai/ha): 25
- Barnyardgrass plant response rating ([12]; 125 g ai/ha): 20
- Plant response rating, Barnyardgrass ([12]; 500 g ai/ha, 0 is no effect, 100 is complete control): 70
- Plant response rating, Wheat ([13]; 125 g ai/ha): 0
- Plant response rating, Wheat ([13]; 500 g ai/ha): 0
- Foxtail, Giant plant response rating ([14]; 125 g ai/ha): 20
- Foxtail, Giant plant response rating ([14]; 500 g ai/ha): 70
- Plant response rating, Blackgrass ([15]; 125 g ai/ha): 0
- Plant response rating, Blackgrass ([15]; 500 g ai/ha): 0
- Plant response rating ([16]; 125 g ai/ha): 0
- Plant response rating ([16]; 250 g ai/ha): 0
- Plant response rating ([16]; 500 g ai/ha): 10
- Plant response rating ([16]; 1000 g ai/ha): 25
- Plant response rating ([17]; 125 g ai/ha): 0
- Plant response rating ([17]; 250 g ai/ha): 35
- Plant response rating ([17]; 500 g ai/ha): 75
- Plant response rating ([17]; 1000 g ai/ha): 100
- Plant response rating, Foxtail, Giant ([18]; 125 g ai/ha): 20
- Plant response rating, Foxtail, Giant ([18]; 500 g ai/ha): 60
- Ryegrass, Italian plant response rating ([19]; 125 g ai/ha): 0
- Ryegrass, Italian plant response rating ([19]; 500 g ai/ha): 0
- Pigweed plant response rating ([20]; 125 g ai/ha): 0
- Pigweed plant response rating ([20]; 500 g ai/ha): 0
- Plant response rating, Kochia ([21]; 125 g ai/ha): 0
- Plant response rating, Kochia ([21]; 500 g ai/ha): 0
- Plant response rating, Ragweed ([22]; 125 g ai/ha): 0
- Plant response rating, Ragweed ([22]; 500 g ai/ha): 0
- Plant response rating ([23]; 125 g ai/ha): 0
- Plant response rating ([23]; 250 g ai/ha): 0
- Plant response rating ([23]; 500 g ai/ha): 0
- Plant response rating ([23]; 1000 g ai/ha): 0
- Plant response rating, Pigweed ([24]; 125 g ai/ha): 0
- Plant response rating, Pigweed ([24]; 500 g ai/ha): 0
